In patent US12502374B2, “Composition for preventing, alleviating, or treating inflammatory disease containing isookanin or salt thereof as active ingredient” (BioSpectrum, Inc., priority 2020, dated 2025):

Tests used:
Janus kinase 1 = Janus kinase 1 (Homo sapiens, UniProt P23458); test: Janus kinase 1 activity inhibition, HTRF KinEASE-TK kit (TR-FRET); type: biochemical; conditions: FIG. 1
Procedure: The effect of isookanin on the inhibition of Janus kinase 1 activity was measured using the HTRF KinEASE-TK kit (Cisbio, France). HTRF is a time-resolved fluorescence resonance energy transfer technology (TR-FRET) analysis method, which is applied to high-throughput screening (HTS) and is one of the methods widely used in drug development. From general cytokine measurement, enzyme activity, protein phosphorylation, protein-protein interaction, cAMP measurement, and the like can be measured by fluorescence through acceptor/donor reaction, and HTRF has an advantage in that, since measurement is carried out in two wavelength regions, it is possible to reduce interference from buffers and media. All components of the HTRF KinEase™-TK kit were handled according to the instructions. For kinases, the ability of a test substance to inhibit kinase activity is measured by allowing a kinase to react with an appropriate substrate in the presence or absence of a sample and capturing the phosphorylated substrate by a detection reagent. Briefly, the following two steps performed.
A kinase is allowed to react with an appropriate substrate in the presence and absence of a sample. Enzyme buffer is used as a control (−) instead of the sample, and the group treated with 100 nM of loxolitinib is used as a positive control. […]
Step 2. Fluorescence Detection […]

PGE2 = test: LPS-induced PGE2 secretion in RAW 264.7 macrophages (ELISA); type: cell-based, mouse; conditions: 1, 5 and 10 ppm, LPS 100 ng/mL, FIG. 7
Procedure: Mouse macrophages (RAW 264.7) were seeded in a 24-well microplate at a density of about 2×10^5 cells per well, and cultured in an incubator for 24 hours at 37° C. under 5% CO2. Thereafter, the cells were treated with each of 1, 5 and 10 ppm of isookanin, and then treated with LPS (100 ng/mL) and cultured, and then the cell culture medium was collected. Next, the secretion level of PGE2 was measured using an ELISA kit. As a negative control group (−), mouse macrophages not treated with isookanin and LPS were used.

TLR-2 = target: T1, TLR-2 (Homo sapiens, UniProt O60603); test: Chitin-induced TLR-2 activation, HEK-Blue TLR2 SEAP reporter cells; type: cell-based; conditions: 1 hour pretreatment, then chitin for 12 hours; FIG. 3
T1 construct: host or cells: HEK-Blue TLR2 cell line
Procedure: The anti-inflammatory effect of isookanin by inhibition of TLR-2 activation was measured. The HEK-Blue™ TLR2 cell line (InvivoGen, USA) co-transfected with TLR-2 and SEAP (secreted embryonic alkaline phosphatase) reporter genes was used. The SEAP reporter gene contains transcription factors NF-kB and AP-1 binding sites, and thus when NF-kB and AP-1 are activated by TLR-2 activation, SEAP is produced and secreted extracellularly. Specifically, the HEK-Blue™ TLR2 cell line was cultured in DMEM containing 10% FBS, and then seeded in a 48-well plate at a density of 1×10^5 cells per well, and pretreated with isookanin for 1 hour. Next, the cells were treated with chitin (Carbosynth, USA) and cultured again for 12 hours. Here, chitin is a component of demodex and is known as a major trigger of inflammatory rosacea. […] 20 μl of the culture supernatant of the cells cultured for 12 hours was taken, mixed with 80 μl of QUANTI-Blue™ (InvivoGen, USA), and then incubated at 37° C. for 1 hour. The degree of TLR-2 activation was measured by comparing the degree of color development caused by the reaction between Quanti-Blue and extracellularly secreted SEAP, and the results are shown in FIG. 3.

HMEC-1 [1] = test: PGE2-induced vascular endothelial cell proliferation (MTT assay); type: cell-based, human; conditions: 1 hour pretreatment; 20 μM PGE2, 48 hours; FIG. 8
Procedure: Human microvascular […] cells (HMEC-1, ATCC, USA) were cultured in MCDB131 medium (Thermo Fisher, USA) containing 10 ng/ml EGF, 1 μg/mL cortisol, 10 mM glutamine and 10% FBS, and then seeded in a 24-well plate at a density of 5×10^4 cells per well and cultured in an incubator for 24 hours at cultured at 37° C. under 5% CO2. After culturing, each well was pretreated with each concentration of isookanin for 1 hour, and then treated with 20 μM PGE2 and cultured again for 48 hours. After 48 hours of culturing, the degree of vascular cell proliferation was measured using MTT assay, and the results are shown in FIG. 8.

HMEC-1 [2] = test: PGE2-induced vascular endothelial cell tube formation on Matrigel; type: cell-based, human; conditions: 10 ppm, 2 hours pretreatment; 20 μM PGE2, 24 hours; FIGS. 10 and 11
Procedure: Human vascular endothelial cells (HMEC-1) were seeded in a Matrigel-coated 24-well plate at a density of 1.2×10^5 cells per well, and each well was pretreated with 10 ppm of isookanin for 2 hours. Next, each well was treated with PGE2 at a concentration of 20 μM and incubated for 24 hours. As a negative control, 100 ng/ml of VEGF was used. After 24 hours of incubation, the degree of vascular cell tube formation was observed using a microscope, and the results were photographed with a microscope camera and analyzed with Image J, and are shown in FIGS. 10 and 11.

Sequence of Janus kinase 1 (P23458 whole entry, species assumed): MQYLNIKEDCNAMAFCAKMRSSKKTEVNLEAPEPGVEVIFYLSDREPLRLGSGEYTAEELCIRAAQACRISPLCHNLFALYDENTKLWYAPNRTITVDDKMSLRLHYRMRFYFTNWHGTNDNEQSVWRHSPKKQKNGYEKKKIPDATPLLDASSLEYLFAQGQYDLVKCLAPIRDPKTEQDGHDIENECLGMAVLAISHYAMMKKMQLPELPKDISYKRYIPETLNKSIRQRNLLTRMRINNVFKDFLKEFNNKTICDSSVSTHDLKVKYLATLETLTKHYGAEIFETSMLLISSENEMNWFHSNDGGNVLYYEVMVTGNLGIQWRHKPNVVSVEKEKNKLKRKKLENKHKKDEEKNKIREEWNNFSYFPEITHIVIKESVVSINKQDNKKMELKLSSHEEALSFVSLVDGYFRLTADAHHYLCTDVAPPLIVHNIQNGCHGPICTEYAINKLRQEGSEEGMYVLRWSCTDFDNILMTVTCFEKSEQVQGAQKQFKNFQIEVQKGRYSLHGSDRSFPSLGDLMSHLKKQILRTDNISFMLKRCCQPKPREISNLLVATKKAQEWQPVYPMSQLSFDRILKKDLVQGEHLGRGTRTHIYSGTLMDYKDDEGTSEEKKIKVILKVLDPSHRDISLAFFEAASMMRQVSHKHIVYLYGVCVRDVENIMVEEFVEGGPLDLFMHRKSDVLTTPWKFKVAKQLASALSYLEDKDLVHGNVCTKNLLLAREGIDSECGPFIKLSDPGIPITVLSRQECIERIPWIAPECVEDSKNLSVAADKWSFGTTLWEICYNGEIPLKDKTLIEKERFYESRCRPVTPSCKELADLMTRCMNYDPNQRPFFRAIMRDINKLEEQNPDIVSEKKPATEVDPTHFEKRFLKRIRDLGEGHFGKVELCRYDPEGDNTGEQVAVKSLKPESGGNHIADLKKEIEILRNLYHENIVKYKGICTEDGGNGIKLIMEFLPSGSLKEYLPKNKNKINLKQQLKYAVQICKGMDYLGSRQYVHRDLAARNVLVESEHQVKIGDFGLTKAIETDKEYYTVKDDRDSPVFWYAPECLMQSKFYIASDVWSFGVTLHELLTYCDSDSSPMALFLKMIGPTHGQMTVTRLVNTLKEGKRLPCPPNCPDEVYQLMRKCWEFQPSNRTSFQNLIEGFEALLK
T1 sequence (O60603 21-784): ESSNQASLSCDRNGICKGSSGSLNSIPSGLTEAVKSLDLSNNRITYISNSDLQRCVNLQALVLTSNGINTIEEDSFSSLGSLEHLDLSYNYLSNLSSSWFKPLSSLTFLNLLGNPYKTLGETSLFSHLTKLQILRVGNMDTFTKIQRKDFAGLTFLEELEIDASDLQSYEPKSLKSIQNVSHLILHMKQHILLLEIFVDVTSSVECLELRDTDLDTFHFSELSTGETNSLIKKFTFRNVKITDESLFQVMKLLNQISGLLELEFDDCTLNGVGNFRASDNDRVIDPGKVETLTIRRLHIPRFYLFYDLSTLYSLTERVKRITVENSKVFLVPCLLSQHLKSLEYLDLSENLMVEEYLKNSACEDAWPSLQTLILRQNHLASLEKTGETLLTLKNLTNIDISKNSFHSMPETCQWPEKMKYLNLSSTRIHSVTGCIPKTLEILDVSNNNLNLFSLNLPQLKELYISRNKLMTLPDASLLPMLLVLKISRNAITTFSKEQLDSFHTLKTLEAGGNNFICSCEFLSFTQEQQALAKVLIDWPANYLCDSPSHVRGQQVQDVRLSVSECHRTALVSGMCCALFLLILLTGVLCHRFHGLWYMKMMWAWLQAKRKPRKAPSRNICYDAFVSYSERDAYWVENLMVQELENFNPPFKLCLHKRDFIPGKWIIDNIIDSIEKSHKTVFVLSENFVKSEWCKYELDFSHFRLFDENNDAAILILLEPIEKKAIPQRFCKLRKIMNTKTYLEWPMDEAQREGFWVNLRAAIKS

Compound: O=C1C[C@@H](c2ccc(O)c(O)c2)Oc2c1ccc(O)c2O [isookanin]
- inhibition of Janus kinase 1 activity (Janus kinase 1): significantly inhibited
- inhibition of LPS-induced PGE2 expression (PGE2): inhibiting the LPS-induced expression of PGE2 in a concentration-dependent manner
- inhibition of chitin-induced activation of TLR-2 signaling (TLR-2): effectively inhibiting the chitin-induced activation of TLR-2 signaling
- inhibition of human vascular endothelial cell proliferation induced by PGE2 (HMEC-1 [1]): effectively inhibiting human vascular endothelial cell proliferation induced by PGE2
- inhibition of human vascular endothelial cell tube formation induced by PGE2 (HMEC-1 [2]): effectively inhibiting human vascular endothelial cell tube formation induced by PGE2
